In patent US20240082218A1, “PHARMACEUTICAL COMBINATIONS COMPRISING A KRAS G12C INHIBITOR AND USES OF A KRAS G12C INHIBITOR FOR THE TREATMENT OF CANCERS” (priority 2020, published 2024):

Test system: Lu99 KRAS G12C lung carcinoma xenograft
Experiment: Anti-tumor efficacy in Lu99 KRAS G12C lung carcinoma xenografts
Assay type: in vivo, mice
Conditions: Lu99, oral, Compound A 100 mg/kg once daily, alone or in combination
Method: It carries the allele NM_033360.4(KRAS):c.34G>T and consequently a heterozygous KRAS Gly12Cys mutation. Lu99 cells were grown in sterile conditions in a 37° C. incubator with 5% CO2 for two weeks. The cells were kept in RPMI media supplemented with 10% FCS, 2 mM L-Glutamin, 1 mM sodium pyruvate and 10 mM HEPES, and split 1:6 every 3 days. […] On the day of injection, cells were harvested after 8 passages in total, including passages from the vendor. Cells were resuspended in 50% HBSS and 50% Matrigel at a final concentration of 10·10^6 cells/ml.
Experiments were performed with female nude mice (Charles River Laboratories, Crl:NU(NCr)-Foxn1nu Homozygous). […] Animals were allowed to accommodate at least for 7 days.
Mice were injected subcutaneously with Lu99 human NSCLC cells to induce xenograft tumors and randomized into treatment groups when the mean tumor volume reached ˜250 mm^3.
The control group received a solution of 0.1% Tween 80 (Fisher Scientific AG #BP338-500) and 0.5% Methylcellulose in water.
The treatment period was between 9 to 28 days, depending on the groups.
Tumor growth was monitored regularly post cell inoculation and animals were randomized into treatment groups (n=6) when TV reached appropriate volume. During the treatment period, xenograft tumor sizes were measured about 2-3 times per week manually with calipers, and the TV was estimated in mm^3 using the formula: Length×Width^2/2.
Mice were injected subcutaneously with Lu99 human NSCLC cells to induce xenograft tumors and randomized into treatment groups when the mean tumor volume reached ˜200 mm^3. […] The treatment period was between 14 to 35 days, depending on the groups. Animals treated with vehicle were terminated at day 14. […] Tumor volumes were recorded and are represented as mean±SEM (standard error of the mean) for each group. Anti-tumor response of treatment groups vs. vehicle group was calculated at day 14 as % T/C or % regression.

C[C@@H]1OCC2(CCN(c3cnc(Sc4ccnc(N)c4Cl)c(N)n3)CC2)[C@@H]1N [TNO155, (3S,4S)-8-(6-amino-5-((2-amino-3-chloropyridin-4-yl)thio)pyrazin-2-yl)-3-methyl-2-oxa-8-azaspiro[4.5]decan-4-amine]
anti-tumor response (Example 7) (TNO155 10 mg/kg twice daily continuous): slight tumor growth delay
anti-tumor response (Example 6) (TNO155 10 mg/kg twice daily, up to 28 days): moderate anti-tumor response
